Reference: publication PMC9824695 (Molecules, 2023)
“Also recorded” adds a separate entry of the source. Like-named read-outs stand apart in the source and are kept apart here.

Columns and labels:
DOR = conditions: cited from earlier work
opioid receptors = conditions: cited from earlier work
male Kunming mice [1] = experiment: Antinociceptive tolerance (tail-flick, 8 days); conditions: 10 mg/kg s.c. once a day
[2] = Blood-brain barrier penetration; conditions: inferred from naloxone methiodide s.c. vs i.c.v. antagonism in mice
male Kunming mice [3] = experiment: Rotarod test; type: in vivo, mouse (Kunming); conditions: 10 mg/kg s.c.; compared with saline
[4] = 15% mouse brain homogenate; cited from earlier work
male Kunming mice [5] = experiment: Naloxone-induced withdrawal response (jumping); conditions: 10 mg/kg s.c.; method: 20, 40, 60, 80, 100, 100, 100 mg/kg every 8 h, naloxone 10 mg/kg
male Kunming mice [6] = experiment: Conditioned place preference; type: in vivo, mouse (Kunming); conditions: 10 mg/kg s.c.
Protocol: The conditioned place preference experiment is a classical model for evaluating dependence. The device consisted of three compartments. Two large compartments (20 × 20 × 20 cm) were connected by a narrower compartment (5 × 20 × 20 cm). The large compartments were visually and tactually distinct (white walls with rough floors and black walls with smooth floors). Before the unbiased experiment, the mice were allowed to move freely for 15 min to accommodate the apparatus. On the first day, the time the mice spent in each compartment was documented within 15 min. Over the next 3 days, the mice were subcutaneously administered drugs and were limited to one of the two large compartments. Approximately 6 h later, the mice were subcutaneously injected with saline and confined to the opposite compartment. On the fifth day, the mice moved freely for 15 min, and the time spent in the drug-associated preference compartment was recorded. The conditioned place preference score was calculated as: score = time spent in the drug-associated preference compartment on the fifth day − time spent in the same compartment on the first day.

[7] = biological target: human mu opioid receptor (CHOhMOP) (Homo sapiens, UniProt P35372); experiment: cell-based
male Kunming mice [8] = experiment: Acute hyperlocomotion test (open field); conditions: 10 mg/kg s.c.; 150 min
[9] = biological target: human delta opioid receptor (CHOhDOP) (Homo sapiens, UniProt P41143); experiment: Calcium mobilization assay, CHOhDOP cells
male Kunming mice [10] = experiment: Gastrointestinal transit test (charcoal meal); type: in vivo, mouse (Kunming); conditions: 10 mg/kg s.c.; for GIT%: 15 min before charcoal meal, 30 min, p < 0.05, lower = stronger inhibition
Protocol: The mice were fasted for 16 h with free access to water. Drugs were subcutaneously injected 15 min before the oral administration of a charcoal meal (an aqueous suspension of 5% charcoal and 10% gum arable). Thirty minutes after the oral administration, the animals were sacrificed. The farthest traveled distance by the charcoal meal (L1) and total length of the small intestine (L2) were measured. The GIT inhibition by analgesics was represented by GIT% = (L1/L2) × 100.

human sperm = experiment: Human sperm motility in vitro; conditions: 0.0001, 0.001, 0.01, 0.1, 1, or 10 µM, 4-h incubation, 37 °C, n = 5
KOR = conditions: cited from earlier work
Source text: Table 2 The actions of agonists and antagonists at opioid receptors. | column: Ki^(KOR) (nM)

MOR = conditions: cited from earlier work
[11] = cited from earlier work
mice = test system: mice; parameters: method as in 2 sources, ref 9 = [9]; PMID 9087409; doi:10.1038/386499a0; 9. Zadina J.E. Hackler L. Ge L.-J. Kastin A.J.J.N. A potent and selective endogenous agonist for the µ-opiate receptor Nature 1997 386 499 502 10.1038/386499a0 9087409 ||| ref 16 = [16]; PMID 31444977; doi:10.1111/bph.14848; 16. Xu B. Zhang M. Shi X. Zhang R. Chen D. Chen Y. Wang Z. Qiu Y. Zhang T. Xu K. The multifunctional peptide DN-9 produced peripherally acting antinociception in inflammatory and neuropathic pain via; conditions: cited from earlier work
male Kunming mice [12] = experiment: Formalin test; type: in vivo, mouse (Kunming); conditions: phase I 0–5 min
Protocol: The formalin test was conducted to explore a characteristic biphasic pain response. The better the analgesic effect in mice, the shorter the average licking/biting/shaking paw time. The mice were acclimated in a transparent plexiglass chamber (20 × 20 × 30 cm) for 15–20 min. First, the mice received a subcutaneous injection of drugs. Five minutes later, 20 μL of 5% formalin was administered by intraplantar injection to the right hind paw. The mice were immediately placed back in the chamber. Simultaneously, the time spent licking, biting, and shaking the injected paw was recorded within 0–5 and 15–30 min.

male Kunming mice [13] = experiment: Radiant heat tail-flick test; type: in vivo, mouse (Kunming); conditions: for ED50: Mus musculus, sc
Source text: The radiant heat tail-flick test has been widely used as an acute pain model to examine the effects of analgesics. The mice were gently stabilized by hand, and the dorsal surface of the tail, 3 cm from the distal end, was placed on a radiant heat source. The cutoff time was set to 10 s to avoid tissue damage. Radiant heat intensity was adapted to engender a basal latency within 3–5 s in naive mice. Tail-flick latency was defined as the time when the mouse flicked its tail away from the radiant heat source. The data of antinociceptive effects for each animal after treatment were calculated as a percentage of the maximal possible effect (MPE%): MPE (%) = 100 × [(postdrug response − baseline response)/(cutoff response − baseline response)]. The MPE% from each animal was converted to an area under the curve (AUC).
Statistical significance was set at p < 0.05.

male Kunming mice [14] = experiment: Acetic acid-induced writhing test; type: in vivo, mouse (Kunming); conditions: 0.6% acetic acid i.p.
Protocol: An acetic acid-induced writhing test was performed to investigate visceral pain [43]. The increase in intensity of drug analgesia would be accompanied by a decrease in the writhing number. The mice were acclimatized in a transparent acrylic chamber (20 × 20 × 30 cm) for 15–20 min. First, the mice were subcutaneously injected with drugs. Five minutes later, they were intraperitoneally injected with 0.6% acetic acid solution. Within 5–15 min after injecting acetic acid, the number of writhes was recorded. Writhe was defined as a contraction of the abdominal muscles and stretching of the hind limbs.

male Kunming mice [15] = experiment: Carrageenan-induced inflammatory pain; type: in vivo, mouse (Kunming); conditions: s.c.

Chain of human delta opioid receptor (CHOhDOP) (P41143 whole entry): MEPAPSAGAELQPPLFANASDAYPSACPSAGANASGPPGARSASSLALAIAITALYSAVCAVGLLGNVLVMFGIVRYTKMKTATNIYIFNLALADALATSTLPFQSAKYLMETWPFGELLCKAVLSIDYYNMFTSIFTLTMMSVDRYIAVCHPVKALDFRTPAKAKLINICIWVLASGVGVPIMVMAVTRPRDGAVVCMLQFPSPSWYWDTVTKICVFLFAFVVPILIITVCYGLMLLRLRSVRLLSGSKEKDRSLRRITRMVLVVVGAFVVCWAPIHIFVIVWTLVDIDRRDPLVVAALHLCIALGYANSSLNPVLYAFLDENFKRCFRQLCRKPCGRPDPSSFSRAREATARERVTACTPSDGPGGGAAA
Chain of human mu opioid receptor (CHOhMOP) (P35372 whole entry): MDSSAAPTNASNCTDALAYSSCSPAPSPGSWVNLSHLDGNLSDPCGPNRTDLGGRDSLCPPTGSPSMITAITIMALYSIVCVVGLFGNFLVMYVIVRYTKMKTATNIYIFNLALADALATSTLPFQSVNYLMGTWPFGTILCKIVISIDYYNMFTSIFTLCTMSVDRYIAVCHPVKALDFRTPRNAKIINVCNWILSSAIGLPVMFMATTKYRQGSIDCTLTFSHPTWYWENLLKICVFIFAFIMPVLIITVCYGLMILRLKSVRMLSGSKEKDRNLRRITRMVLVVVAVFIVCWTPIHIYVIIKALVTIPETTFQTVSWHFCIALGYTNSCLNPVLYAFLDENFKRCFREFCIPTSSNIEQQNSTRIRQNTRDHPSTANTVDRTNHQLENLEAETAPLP

Oc1ccc2c3c1O[C@H]1c4[nH]c5ccccc5c4C[C@@]4(O)[C@@H](C2)N(CC2CC2)CC[C@]314 [naltrindole]
Ki (DOR): 0.02 nM | Antagonist (receptors) (opioid receptors): DOR

C[C@@H](NC(=O)[C@@H](N)Cc1ccc(O)cc1)C(=O)NCC(=O)N[C@@H](Cc1ccccc1)C(N)=O [HAGD, H-Tyr-D-AIa-GIy-Phe-NH2]
antinociceptive tolerance (male Kunming mice [1]): non-tolerance antinociception for 8 consecutive days; also recorded: non-tolerance antinociception for eight consecutive days | BBB permeability [2]: poor BBB permeability; also recorded: poor ability of HAGD to penetrate the BBB into the CNS | endurance time on rotating rod (in words) (male Kunming mice [3]): no significant difference in the endurance time | half-life in brain homogenate [4]: 4.3288 ± 0.6835 h | withdrawal response (male Kunming mice [5]): significant withdrawal response; also recorded: significant physical dependence | conditioned place preference (in words) (male Kunming mice [6]): did not induce a place preference change; also recorded: substantial difference in the conditioned place preference scores between the HAGD and morphine groups | Emax [7]: 103 ± 1.58% | EC50 ([7]; CHOhMOP, duplicate, repeated at least three times): 81.7 nM | locomotor activity (in words) (male Kunming mice [8]): did not show an apparent effect on locomotion compared with saline | EC50 [9]: 2630 nM | Emax ([9]; read-out: Emax ± S.E.M.): 110 ± 7.21% | gastrointestinal transit (in words) (male Kunming mice [10]): significant delay compared with saline | GIT% (male Kunming mice [10]): 44.83 ± 4.14% | sperm progressive motility (PR), HAGD (in words) (human sperm): did not produce significant changes in sperm PR; also recorded: did not have a significant negative effect on human sperm motility

C=CC[N+]1(C)CC[C@]23c4c5ccc(O)c4O[C@H]2C(=O)CC[C@@]3(O)[C@H]1C5 (stereo partly shown) [naloxone methiodide]
Ki (KOR): 204 nM | Ki (DOR): 1010 nM | Ki (MOR): 28.9 nM | Antagonist (receptors) (opioid receptors): MOR DOR KOR | peripheral restriction ([11]; opioid receptor antagonist): peripherally restricted

Tyr1-Pro2-Phe3-Phe4-NH2 [endomorphin-2]
antinociception compared with morphine (mice): more potent and prolonged antinociception than morphine in mice | selectivity for MOR (MOR): highly selective for MORs

Oc1ccc2c3c1O[C@H]1c4[nH]c5c(c4C[C@@]4(O)[C@@H](C2)N(CC2CC2)CC[C@]314)C[C@@]1(O)[C@H]2Cc3ccc(O)c4c3[C@@]1(CCN2CC1CC1)[C@H]5O4 [nor-binaltorphimine]
Antagonist (receptors) (opioid receptors): KOR

COC(=O)/C=C/C(=O)N[C@@H]1CC[C@@]2(O)[C@H]3Cc4ccc(O)c5c4[C@@]2(CCN3CC2CC2)[C@H]1O5 [β-funaltrexamine]
Ki (MOR; binds covalently to MOR): 0.3 nM | Antagonist (receptors) (opioid receptors): The inhibition constant (Ki) represented the agonist or antagonist affinity. ^a Drug dosage was in mg/kg (or µmol/kg) for each animal (subcutaneously). ^b β-funaltrexamine binds covalently to MOR. MOR, mu opioid receptor; DOR, delta opioid receptor; KOR, kappa opioid receptor. nM, nmol/L; also recorded: MOR ^b

CN1CC[C@]23c4c5ccc(O)c4O[C@H]2[C@@H](O)C=C[C@H]3[C@H]1C5 [morphine]
antinociceptive tolerance (male Kunming mice [1]): decreased significantly from days 5 to 8; also recorded: produced antinociceptive tolerance in the tail-flick test | formalin test phase I response (male Kunming mice [12]; 10 mg/kg s.c., 5% formalin intraplantar, mean ± S.E.M., p < 0.05, lower = better): 67.36 ± 3.93 | formalin-induced nociceptive responses, phases I and II (in words) (male Kunming mice [12]; s.c., morphine 10 mg/kg, phase II 15–30 min): attenuated nociceptive responses in both phases I and II | ED50 (male Kunming mice [13]; mice, equivalent of the mg/kg value, read-out: antinociceptive ED50 (molar equivalent)): 16.3 µmol/kg | ED50 (male Kunming mice [13]; read-out: antinociceptive ED50): 5.24 mg/kg | time of peak tail-flick latency (male Kunming mice [13]; s.c., mice): 30 min | withdrawal response (male Kunming mice [5]): significant withdrawal response; also recorded: significant physical dependence | conditioned place preference (in words) (male Kunming mice [6]): significant place preference change | conditioned place preference score (male Kunming mice [6]; mean ± S.E.M.): 140.50 ± 43.96 | locomotor activity (in words) (male Kunming mice [8]): enhanced the locomotor activity of mice and significantly increased the total distance traveled compared with saline or HAGD | gastrointestinal transit (in words) (male Kunming mice [10]): significantly weakened the GIT and exhibited a greater inhibitory effect than HAGD | GIT% (male Kunming mice [10]): 24.11 ± 3.79% | average writhing number (male Kunming mice [14]; 1 mg/kg s.c., 5–15 min, mean ± S.E.M., saline 34 ± 2.49): 4.60 ± 2.43 | inhibition of writhing response (in words) (male Kunming mice [14]; s.c.): inhibited the writhing response | duration of anti-allodynic activity (male Kunming mice [15]; carrageenan-treated mice): 60 min | time of peak anti-allodynic effect (male Kunming mice [15]; post-injection): 30 min

Tyr1-Pro2-Trp3-Phe4-NH2 [endomorphin-1]
half-life in brain homogenate [4]: 0.3923 ± 0.00417 h | antinociception compared with morphine (mice): more potent and prolonged antinociception than morphine in mice | selectivity for MOR (MOR): highly selective for MORs | BBB crossing ([11]; into the CNS as an analgesic): inability of endomorphin-1 to cross the blood–brain barrier (BBB)
